Each compound was assayed against Mcl-1 (Homo sapiens (Human), UniProt Q07820) (assay: Fluorescence polarization anisotropy (FPA) competition assay, FITC-Bak or FITC-Bim BH3 peptide). Details: read-out: Ki for Inhibition of Mcl-1 by FPA assay.
Mcl-1, sequence (Q07820 172-327): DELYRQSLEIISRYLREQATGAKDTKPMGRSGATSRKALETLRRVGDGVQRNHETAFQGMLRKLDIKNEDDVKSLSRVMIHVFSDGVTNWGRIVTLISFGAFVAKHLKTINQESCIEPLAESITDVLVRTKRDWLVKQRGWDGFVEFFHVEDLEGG
Assay type: binding
In the case of `Cc1cc(OCCCc2c3n(c4c(-c5c(C)nn(C)c5C)c(Cl)ccc24)CCCN(Cc2cc(C(=O)O)cc(N4CCN(S(=O)(=O)CCc5ccccc5)CC4)n2)C3=O)cc(C)c1Cl` [Example 38, 2-((8-Chloro-11-(3-(4-chloro-3,5-dimethylphenoxy)propyl)-1-oxo-7-(1,3,5-trimethyl-1H-pyrazol-4-yl)-4,5-dihydro-1H-[1,4]diazepino[1,2-a]indol-2(3H)-yl)methyl)-6-(4-(phenethylsulfonyl)piperazin-1-yl)isonicotinic acid], the Ki is reported as 62 nM.
In the case of `Cc1cc(OCCCc2c3n(c4c(-c5c(C)nn(C)c5C)c(Cl)ccc24)CCCN(c2cc(C(=O)O)c4cnn(CCO)c4c2)C3=O)cc(C)c1Cl` [Example 107, 6-[8-Chloro-11-[3-(4-chloro-3,5-dimethyl-phenoxy)propyl]-1-oxo-7-(1,3,5-trimethylpyrazol-4-yl)-4,5-dihydro-3H-[1,4]diazepino[1,2-a]indol-2-yl]-1-(2-hydroxyethyl)indazole-4-carboxylic acid], the Ki is reported as under 1 nM.
Compound `Cc1cc(OCCCc2c(C(=O)NCc3cccc(C(=O)O)c3)[nH]c3c(-c4c(C)ncnc4C)c(Cl)ccc23)cc(C)c1Cl` [Example 748, 3-[[[6-Chloro-3-[3-(4-chloro-3,5-dimethyl-phenoxy)propyl]-7-(4,6-dimethylpyrimidin-5-yl)-1H-indole-2-carbonyl]amino]methyl]benzoic acid] has a Ki of 6.3 nM.
`Cc1cc(OCCCc2c(C(=O)N3CCN(c4cccc(C(=O)O)c4)CC3)n(Cc3cccnc3)c3c(-c4c(C)nn(C)c4C)c(Cl)ccc23)cc(C)c1Cl` [Example 735, 3-(4-(6-chloro-3-(3-(4-chloro-3,5-dimethylphenoxy)propyl)-1-(pyridin-3-ylmethyl)-7-(1,3,5-trimethyl-1H-pyrazol-4-yl)-1H-indole-2-carbonyl)piperazin-1-yl)benzoic acid] gave a Ki of 52 nM.
Work on `Cc1cc(OCCCc2c3n(c4c(-c5c(C)nn(C)c5C)c(Cl)ccc24)CCCN(C2=CNC(C(=O)O)=C(O)N2)C3=O)cc(C)c1Cl` [Example 73, 5-(8-Chloro-11-(3-(4-chloro-3,5-dimethylphenoxy)propyl)-1-oxo-7-(1,3,5-trimethyl-1H-pyrazol-4-yl)-4,5-dihydro-1H-[1,4]diazepino[1,2-a]indol-2(3H)-yl)-3-hydroxy-1,4-dihydropyrazine-2-carboxylic acid] yielded a Ki of under 1 nM.
For `Cc1cc(OCCCc2c3n(c4c(-c5c(C)nn(C)c5C)c(Cl)ccc24)[C@H](C)CN(c2cn(C)c4ccc(C(F)(F)F)cc24)C3=O)cc(C)c1Cl` (single isomer, unassigned) [Example 200], the Ki was 6.6 nM.
`Cc1cc(CCCCc2c(C(=O)N3CCN(c4ccnc(C(=O)O)c4)CC3)n(Cc3cccnc3)c3c(-c4c(C)nn(C)c4C)c(Cl)ccc23)cc(C)c1Cl` [Example 742, 4-(4-(6-Chloro-3-(4-(4-chloro-3,5-dimethylphenyl)butyl)-1-(pyridin-3-ylmethyl)-7-(1,3,5-trimethyl-1H-pyrazol-4-yl)-1H-indole-2-carbonyl)piperazin-1-yl)picolinic acid] showed a Ki of over 200 nM.
`Cc1cc(OCCCc2c3n(c4c(-c5c(C)nn(C)c5C)c(Cl)ccc24)CCCN(c2cccc4c(C#N)cn(C)c24)C3=O)cc(C)c1Cl` [Example 6, 7-[8-Chloro-11-[3-(4-chloro-3,5-dimethyl-phenoxy)propyl]-1-oxo-7-(1,3,5-trimethylpyrazol-4-yl)-4,5-dihydro-3H-[1,4]diazepino[1,2-a]indol-2-yl]-1-methyl-indole-3-carbonitrile] showed a Ki of 54 nM.
`COCCCc1c2n(c3c(-c4c(C)nn(C)c4C)c(Cl)ccc13)[C@H](C)CN(c1cn(C)c3ccc(C(=O)O)cc13)C2=O` [Example 406, (R)-3-(7-Chloro-10-(3-methoxypropyl)-4-methyl-1-oxo-6-(1,3,5-trimethyl-1H-pyrazol-4-yl)-3,4-dihydropyrazino[1,2-a]indol-2(1H)-yl)-1-methyl-1H-indole-5-carboxylic acid] showed a Ki of over 250 nM.
`CC[C@@H]1Cn2c(c(CCCOc3cc(C)c(Cl)c(C)c3)c3ccc(Cl)c(-c4c(C)nn(C)c4C)c32)C(=O)N1` [Example 24, (R)-7-chloro-10-(3-(4-chloro-3,5-dimethylphenoxy)propyl)-3-ethyl-6-(1,3,5-trimethyl-1H-pyrazol-4-yl)-3,4-dihydropyrazino[1,2-a]indol-1(2H)-one] showed a Ki of 25 nM.
`Cc1cc(OCCCc2c3n(c4c(-c5c(C)nn(C)c5C)c(Cl)ccc24)[C@H](C)CN(c2ccc4c(C(=O)O)nn(C)c4c2)C3=O)cc(C)c1Cl` [Example 121, (R)-6-(7-Chloro-10-(3-(4-chloro-3,5-dimethylphenoxy)propyl)-4-methyl-1-oxo-6-(1,3,5-trimethyl-1H-pyrazol-4-yl)-3,4-dihydropyrazino[1,2-a]indol-2(1H)-yl)-1-methyl-1H-indazole-3-carboxylic acid] was tested, and the Ki was 1.9 nM.
With `Cc1cc(OCCCc2c3n(c4c(-c5c(C)nn(C)c5C)c(Cl)ccc24)[C@H](C)CN(c2cccc4c2cc(C(N)=O)n4C)C3=O)cc(C)c1Cl` [Example 266, 4-[(4R)-7-chloro-10-[3-(4-chloro-3,5-dimethyl-phenoxy)propyl]-4-methyl-1-oxo-6-(1,3,5-trimethylpyrazol-4-yl)-3,4-dihydropyrazino[1,2-a]indol-2-yl]-1-methyl-indole-2-carboxamide] the Ki was 9.2 nM.
`Cc1cc(OCCCc2c3n(c4c(-c5c(C)nn(C)c5C)c(Cl)ccc24)CCCN(c2cc(C(=O)O)cc4c2cnn4CCN(C)C)C3=O)cc(C)c1Cl` [Example 40, 4-[8-Chloro-11-[3-(4-chloro-3,5-dimethyl-phenoxy)propyl]-1-oxo-7-(1,3,5-trimethylpyrazol-4-yl)-4,5-dihydro-3H-[1,4]diazepino[1,2-a]indol-2-yl]-1-[2-(dimethylamino)ethyl]indazole-6-carboxylic acid] gave a Ki of 3.9 nM.
`Cc1cc(OCCCc2c3n(c4c(-c5c(C)nn(C)c5C)c(Cl)ccc24)[C@H](C)CN(c2cn(C)c4cc(C(F)(F)F)ccc24)C3=O)cc(C)c1Cl` [Example 199, (4R)-7-chloro-10-[3-(4-chloro-3,5-dimethyl-phenoxy)propyl]-4-methyl-2-[1-methyl-6-(trifluoromethyl)indol-3-yl]-6-(1,3,5-trimethylpyrazol-4-yl)-3,4-dihydropyrazino[1,2-a]indol-1-one] was tested, and the Ki was 12 nM.
`CC(=O)N1CCN(c2cc(C(=O)O)cc(CN3CCCn4c(c(CCCOc5cc(C)c(Cl)c(C)c5)c5ccc(Cl)c(-c6c(C)nn(C)c6C)c54)C3=O)n2)CC1` [Example 17, 2-(4-acetylpiperazin-1-yl)-6-((8-chloro-11-(3-(4-chloro-3,5-dimethylphenoxy)propyl)-1-oxo-7-(1,3,5-trimethyl-1H-pyrazol-4-yl)-4,5-dihydro-1H-[1,4]diazepino[1,2-a]indol-2(3H)-yl)methyl)isonicotinic acid] showed a Ki of 10 nM.
Work on `COC(=O)c1ccc2c(c1)c(N1C[C@@H](C)n3c(c(CCCOc4cc(C)c(Cl)c(C)c4)c4ccc(Cl)c(-c5c(C)nn(C)c5C)c43)C1=O)cn2COCC[Si](C)(C)C` [Example 243, Methyl (R)-3-(7-chloro-10-(3-(4-chloro-3,5-dimethylphenoxy)propyl)-4-methyl-1-oxo-6-(1,3,5-trimethyl-1H-pyrazol-4-yl)-3,4-dihydropyrazino[1,2-a]indol-2(1H)-yl)-1-((2-(trimethylsilyl)ethoxy)methyl)-1H-indole-5-carboxylate] yielded a Ki of 45 nM.
In the case of `Cc1cc(OCCCc2c3n(c4c(-c5c(C)nn(C)c5C)c(Cl)ccc24)[C@H](C)CN(c2cn(C)c4ccc(-c5nnc(C6CCCCC6)o5)cc24)C3=O)cc(C)c1Cl` [Example 413, (R)-7-Chloro-10-(3-(4-chloro-3,5-dimethylphenoxy)propyl)-2-(5-(5-cyclohexyl-1,3,4-oxadiazol-2-yl)-1-methyl-1H-indol-3-yl)-4-methyl-6-(1,3,5-trimethyl-1H-pyrazol-4-yl)-3,4-dihydropyrazino[1,2-a]indol-1(2H)-one], the Ki is reported as 3.5 nM.
Compound `CCN1C(=O)COc2cc(C(=O)O)cc(N3C[C@@H](C)n4c(c(CCCOc5cc(C)c(Cl)c(C)c5)c5ccc(Cl)c(-c6c(C)nn(C)c6C)c54)C3=O)c21` [Example 90, (R)-5-(7-chloro-10-(3-(4-chloro-3,5-dimethylphenoxy)propyl)-4-methyl-1-oxo-6-(1,3,5-trimethyl-1H-pyrazol-4-yl)-3,4-dihydropyrazino[1,2-a]indol-2(1H)-yl)-4-ethyl-3-oxo-3,4-dihydro-2H-benzo[b][1,4]oxazine-7-carboxylic acid] has a Ki of 8.7 nM.
`Cc1cc(OCCCc2c3n(c4c(-c5c(C)nn(C)c5C)c(Cl)ccc24)[C@H](C)CN(c2cccc4cc(C(=O)O)n(CC5CCN(C)C5)c24)C3=O)cc(C)c1Cl` (stereo partly drawn) [Example 320, 7-((R)-7-Chloro-10-(3-(4-chloro-3,5-dimethylphenoxy)propyl)-4-methyl-1-oxo-6-(1,3,5-trimethyl-1H-pyrazol-4-yl)-3,4-dihydropyrazino[1,2-a]indol-2(1H)-yl)-1-((1-methylpyrrolidin-3-yl)methyl)-1H-indole-2-carboxylic acid] gave a Ki of 2.7 nM.
Work on `Cc1cc(CCCCc2c(C(=O)N3CCN(c4cncc(C(=O)O)c4)CC3)[nH]c3c(-c4c(C)nn(C)c4C)c(Cl)ccc23)cc(C)c1Cl` [Example 740, 5-(4-(6-Chloro-3-(4-(4-chloro-3,5-dimethylphenyl)butyl)-7-(1,3,5-trimethyl-1H-pyrazol-4-yl)-1H-indole-2-carbonyl)piperazin-1-yl)nicotinic acid] yielded a Ki of 85 nM.
Compound `Cc1cc(OCCCc2c3n(c4c(-c5c(C)nn(C)c5C)c(Cl)ccc24)CCCN(c2cc(C(=O)O)c4c(cnn4C)c2)C3=O)cc(C)c1Cl` [Example 85, 5-[8-Chloro-11-[3-(4-chloro-3,5-dimethyl-phenoxy)propyl]-1-oxo-7-(1,3,5-trimethylpyrazol-4-yl)-4,5-dihydro-3H-[1,4]diazepino[1,2-a]indol-2-yl]-1-methyl-indazole-7-carboxylic acid] has a Ki of 1.5 nM.
`Cc1cc(OCCCc2c3n(c4c(-c5c(C)nn(C)c5C)c(Cl)ccc24)CCCN(c2cc4c(c(C(=O)O)c2)OCCO4)C3=O)cc(C)c1Cl` [Example 25, 7-(8-Chloro-11-(3-(4-chloro-3,5-dimethylphenoxy)propyl)-1-oxo-7-(1,3,5-trimethyl-1H-pyrazol-4-yl)-4,5-dihydro-1H-[1,4]diazepino[1,2-a]indol-2(3H)-yl)-2,3-dihydrobenzo[b][1,4]dioxine-5-carboxylic acid] showed a Ki of 1.1 nM.

From patent US11596639B2, “Substituted indole Mcl-1 inhibitors” (Vanderbilt University, priority 2016, dated 2023)
